Tested on: cultured hair follicles
Assay: Radioactive cysteine incorporation in cultured hair follicles as a measure of hair growth
Format: cell-based, mice
Protocol: In this system, follicles were dissected from 4 day old mice. Healthy follicles were selected visually and cultured in serum free media supplemented with insulin, transferrin and selenium. The activity of compositions comprising one or more of the test compounds in stimulating hair growth was measured by radioactive cysteine labeling of the newly formed hair proteins and expressed as a percentage of the activity of a control (i.e., no test compounds present).

Q: “Glycyl-L-Histidyl-L-Lysyl-L-Valyl-L-Phenylalanyl-L-Valine: Copper Complex” was tested. Which “radioactive cysteine incorporation relative to control (result in words)” value (at the concentrations used (Minoxidil 1 mM, peptide copper complex 10 μM)) did it give?
A: stimulated radioactive cysteine incorporation above that of the control

Q: And the “% of Cysteine Incorporation of Control (no addition)” value (peptide copper complex 10 μM, follicles from 4 day old mice, serum free media)?
A: 113%

From US20040142853A1, “Stimulation of hair growth by compositions containing peptide copper complexes and minoxidil” (priority 2002, published 2004)
